The values below are quoted from earlier work in US5610177A, “Acylated amino acids as endothelin antagonists” (Warner-Lambert Company, priority 1994, dated 1997).

Where a SMILES comes first, the peptide text is derived from it. Where no end group is shown, it is not given here. [ ]: non-standard residue; d: D form.

In data set [1] the test system is ETA. The following applies: cited from earlier work.
The test system of data set [2] is ETA receptor. The conditions noted are these: conscious rats; cited from earlier work.
The test system of data set [3] is Endothelin receptor subtype-A. The conditions noted are these: intravenous infusion, stroke prone spontaneous hypertensive rats; cited from earlier work.
The test system of data set [4] is Endothelin receptor subtype-A. The conditions noted are these: intravenous infusion; cited from earlier work.
Data set [5] relates to ETA receptor. The conditions noted are these: rabbit retinal arteries, i.v.; cited from earlier work.
Data set [6] has as its system ETA receptor. The conditions noted are these: rats, i.v.; cited from earlier work.
Data set [7] relates to Endothelin receptor. The conditions noted are these: rat model; cited from earlier work.
Data set [8] deals with Endothelin receptor. The conditions noted are these: i.v., cited from earlier work.
For data set [9] the following is noted: conditions of hypoglycemia; cited from earlier work.
For data set [10], the system named is liver. The following applies: cited from earlier work.
For data set [11] the following is noted: local intra-arterial administration, rats; cited from earlier work.
The conditions of data set [12]: intracerebroventricular, rats; cited from earlier work.
Data set [13] concerns ETB. The following applies: isolated, endothelium-intact porcine pulmonary arteries; cited from earlier work.

`Cc1noc(NS(=O)(=O)c2cccc3c(N(C)C)cccc23)c1C` [5-(Dimethylamino)-N-(3,4-dimethyl-5-isoxazolyl)-1-naphthalenesulfonamide]: the oral antihypertensive effect result in data set [1] is given as “oral antihypertensive effect”.
With `CC(C)C[C@@H]1NC(=O)[C@@H](C(C)C)NC(=O)[C@@H]2CCCN2C(=O)[C@@H](CC(=O)O)NC(=O)[C@@H](Cc2c[nH]c3ccccc23)NC1=O` [BQ-123] (cyclo(L[dW][dD]P[dV])), the “antagonism of ET-1 induced pressor response” value in data set [2] is “effective in antagonizing the ET-1 induced pressor response”. Besides, in [3], the blood pressure result is recorded as “decreased blood pressure significantly”. In addition, the “prevention of acute hypoxia induced pulmonary hypertension” value in [4] is listed as “effective in the prevention of acute hypoxia induced pulmonary hypertension”. The ET-1 induced vasoconstriction result in [5] is “blocked”. Further, the renal vascular resistance result in data set [6] is recorded as “blocked”. Besides, in data set [7], the “acute CsA toxicity” value was “suppressed”. Besides, the “mitochondrial Ca2+ accumulation” value in data set [8] (early phase of ischemic acute renal failure in rats) is “prevents the mitochondrial [Ca^2+ ] accumulation”. Further, the “protection of proximal tubular cells” value in [8] (ischemic acute renal failure in rats) was “protects proximal tubular cells from post-ischemic degeneration”.
On to “ET-3: one of a family of structurally similar bicyclic peptides (CTCFTYKDKECVYYCHLDIIW; not fully specified (bridges); cysteine pairing not given here; UniProt P14138 97-117, looked up)”, for which the striatal damage entry in [9] is listed as “accelerate the development of striatal damage”.
Endothelin: the “hepatic vasoconstriction and glucose output” value in [10] is “sustained vasoconstriction of the hepatic vasculature and a significant increase in hepatic glucose output”. Also, in data set [11], the “small intestinal mucosal damage” value is given as “induce small intestinal mucosal damage in rats in a dose-dependent manner”.
Turning to “Endothelin-1 (CSCSSLMDKECVYFCHLDIIW; not fully specified (bridges); cysteine pairing not given here; UniProt P05305 53-73, looked up) [ET-1]”, in [12], the behavioral effects result is “evoke several behavioral effects”.
For “N-Acetyl-ET [N-Acetyl-ET [10-21,11,15-Ala]]”, the vasorelaxation entry in [13] is “caused vasorelaxation”.
